Data as given in US9452130B2, “Pharmaceutical composition for preparing drug delivery nano/micro bubbles” (priority 2014, dated 2016).

Columns and labels:
[1] = system: diabetic rats; test: Blood glucose change in diabetic rats after oral or subcutaneous administration; format: in vivo, male Wistar rats; conditions: subcutaneous injection, 5 IU/kg, 0 to 10 hours; FIG. 5
Experimental: Animal experimental procedures were performed based on the management and use of laboratory animals guidelines promulgated by the Council of Agriculture. About 300 to 350 grams of male rats (male Wistar rats) were used. The animal experiments were performed to investigate the treatment of diabetic rats using insulin-embedded carrier system by oral administration of drugs. During experiment, the rats were administrated by oral (30 IU/Kg) and subcutaneous (5 IU/Kg) administration after the rats were fixed. At different times, the animals were placed in the blood-drawing fixation frame to expose the tail, and then the tails were disinfected with iodine to prevent bacterial infection. […] Meanwhile, pharmacokinetics was measured using enzyme immunoassay. In the present example, groups comprising nano/micro bubbles of the present invention (containing 30 IU/kg of insulin), oral administration (30 IU/kg of insulin) and subcutaneous injection of insulin (5 IU/kg) are compared. The change rates in plasma insulin and blood glucose concentration from 0 to 10 hours after subjects taking insulin or injected with insulin were recorded respectively, and the results are illustrated in FIGS. 5a and 5b.

[2] = system: cells; test: Cell images of cells co-cultured with the components of the nano/micro bubbles (FITC-insulin transmission); format: cell-based; conditions: cells co-cultured with the component; stained with Cld 4, E-cadherin, DAPI; FIG. 3

Compound | change rate of the blood glucose [1] | transmission of FITC-insulin (pathway) [2]
insulin | rapidly declined and rose again | 
CCCCCCCCCCCCOS(=O)(=O)[O-].[Na+] [SDS] |  | can promote transmission of FITC-insulin via both of paracellular pathway and transcellular pathway
O=C(O)CN(CCN1CC(=O)OC(=O)C1)CCN1CC(=O)OC(=O)C1 [DTPA dianhydride, diethylenetriaminepentaacetic dianhydride] |  | can promote transmission of FITC-insulin via paracellular pathway
